In patent US20260217735A1, “HETEROCYCLES AND USES THEREOF” (Kumquat Biosciences Inc., priority 2023, published 2026):
Read-outs that look alike come from different tables or passages of the source.

How the values were obtained:
[1] = target: T1, KRAS G12D (Homo sapiens, UniProt P01116, G12D); experiment: HTRF assay, KRAS G12D interaction with SOS1; format: biochemical
T1 construct: made in house; host or cells: E. coli, e.g. BL21 (DE3)

[2] = target: T2, KRAS WT (Homo sapiens, UniProt P01116); experiment: HTRF assay, wildtype KRAS interaction with SOS1; format: biochemical; conditions: bins <500 nM / 500 nM to 1000 nM, read-out: Inhibition of KRAS WT (IC50)
T2 construct: made in house; host or cells: E. coli, e.g. BL21 (DE3)
T2 sequence (P01116 1-188 isoform P01116-2): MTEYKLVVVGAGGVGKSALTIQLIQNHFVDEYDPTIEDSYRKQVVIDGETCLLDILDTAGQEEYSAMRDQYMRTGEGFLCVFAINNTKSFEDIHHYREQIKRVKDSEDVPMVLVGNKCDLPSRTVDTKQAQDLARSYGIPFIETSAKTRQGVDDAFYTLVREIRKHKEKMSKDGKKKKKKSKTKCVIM

[3] = target: T3, KRAS G12V (Homo sapiens, UniProt P01116, G12V); experiment: HTRF assay, KRAS G12V interaction with SOS1; format: biochemical
T3 construct: made in house; host or cells: E. coli, e.g. BL21 (DE3)
T3 sequence (P01116 1-188 isoform P01116-2 G12V): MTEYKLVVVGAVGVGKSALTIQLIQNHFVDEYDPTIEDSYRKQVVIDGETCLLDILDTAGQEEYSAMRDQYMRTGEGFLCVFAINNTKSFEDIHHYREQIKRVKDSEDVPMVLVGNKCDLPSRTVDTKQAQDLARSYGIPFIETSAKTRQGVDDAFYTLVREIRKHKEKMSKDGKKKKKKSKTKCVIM

[4] = target: T4, KRAS G12S (Homo sapiens, UniProt P01116, G12S); experiment: HTRF assay, KRAS G12S interaction with SOS1; format: biochemical
T4 construct: made in house; host or cells: E. coli, e.g. BL21 (DE3)
T4 sequence (P01116 1-188 isoform P01116-2 G12S): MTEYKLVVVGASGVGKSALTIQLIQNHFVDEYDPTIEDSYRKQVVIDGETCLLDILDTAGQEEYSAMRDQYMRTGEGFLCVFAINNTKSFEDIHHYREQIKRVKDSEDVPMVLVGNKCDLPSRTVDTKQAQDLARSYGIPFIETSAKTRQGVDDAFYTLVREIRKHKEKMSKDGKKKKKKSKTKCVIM

[5] = tested on: MiaPaca2 cells; experiment: Ras cellular assay, growth of cells with K-Ras G12C mutation; format: cell-based; conditions: Homo sapiens, MIA PaCa-2
Summary of the method: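 MIA PaCa-2 cells (K-Ras G12C, about 125-150 cells/well) grown in 0.25% soft agar over a 0.6% agar base, compound added on day 2 at 0.3% final DMSO. Growth read on day 10 by Cell Titer 96 AQueous absorbance (490 nm, reference 660 nm) against time-zero wells; IC50 from four-parameter fit.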

[6] = tested on: LS123 cells; experiment: Ras cellular assay, growth of cells with K-Ras G12S mutation (CellTiter-Glo); format: cell-based; conditions: Homo sapiens, LS-123; KRAS G12S cell line; read-out: IC50 against LS123 cells
Procedure: For example, this assay can be also used to assess selective growth inhibition of a mutant Ras protein relative to a wildtype or different mutant Ras protein.
A549 (ATCC CRL-185) and LS123 (ATCC CRL-255) cell lines comprise a G12S mutation and can be used to assess Ras cellular signaling in vitro, e.g., in response to treatment with a compound described herein. A549 culture medium is prepared with RPMI-1640 and 10% heat-inactivated FBS. LS123 culture medium is prepared with RPMI-1640 and 10% heat-inactivated FBS. A CellTiter-Glo (CTG) luminescent based assay (Promega) is used to assess growth of the cells, as a measurement of the ability of the compounds herein to inhibit Ras signaling in the cells. The cells (e.g., 800 per well) are seeded in their respective culture medium in standard tissue culture-treated 384-well format plates (Falcon #08-772-116) or ultra-low attachment surface 384-well format plates (S-Bio #MS-9384WZ). […] Cell viability can be monitored (e.g., approximately 6 days later) according to the manufacturer's recommended instructions, where CellTiter-Glo reagent is added (e.g., approximately 10 μL), vigorously mixed, covered, and placed on a plate shaker (e.g., approximately for 20 min) to ensure sufficient cell lysis prior to assessment of luminescent signal. The IC50 values are determined using the four parameter fit. […]

[7] = bins <500 nM / 500 nM to 1000 nM, read-out: Inhibition of KRAS G12D (IC50)
[8] = bins <500 nM / 500 nM to 1000 nM, read-out: Inhibition of KRAS G12V (IC50)
[9] = bins <500 nM / 500 nM to 1000 nM, read-out: Inhibition of KRAS G12S (IC50)
[10] = cell proliferation assay, bins ≤500 nM / >500 nM, read-out: Inhibition of MiaPaca2 Cells (IC50)

T1 sequence (P01116 1-188 isoform P01116-2 G12D): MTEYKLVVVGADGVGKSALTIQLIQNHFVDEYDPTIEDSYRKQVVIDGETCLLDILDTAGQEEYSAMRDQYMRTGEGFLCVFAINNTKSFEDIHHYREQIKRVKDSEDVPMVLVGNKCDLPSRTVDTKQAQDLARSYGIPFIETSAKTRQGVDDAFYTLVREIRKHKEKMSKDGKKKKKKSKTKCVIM

Row | IC50 [1, 7] | IC50 ([1]; read-out: IC50 against KRAS G121) | IC50 [2] | IC50 [3, 8] | IC50 ([3]; read-out: IC50 against KRAS G12V) | IC50 [4, 9] | IC50 ([4]; read-out: IC50 against KRAS G12S) | IC50 ([5]; KRAS G12C cell line, read-out: IC50 against MiaPaca2 cells) | IC50 [5, 10] | Compound | IC50 [6]
1 | < 500 nM | < 5 nM | < 500 nM | < 500 nM | < 5 nM | < 500 nM | < 5 nM | 0.42 nM | – | CCN(c1nc(OCC23CCCN2C(COc2cc(C(F)(F)F)ncn2)CC3)nc2c(F)c(-c3ccc(F)c4sc(N)c(C#N)c34)c(Cl)cc12)[C@@H]1CCN(C(=O)n2cc(C)nc2C)[C@@H]1C (single isomer, unassigned) [Compound 197] | 4.6 nM
2 | < 500 nM | – | < 500 nM | < 500 nM | – | < 500 nM | – | – | ≤ 500 nM | C[C@@H]1[C@H](N(C)c2nc(OC[C@@]34CCCN3C[C@H](F)C4)nc3c(F)c(-c4ccc(F)c5sc(N)c(C#N)c45)c(Cl)cc23)CCN1C(=O)n1cnc(Cl)c1 [Compound 211, 2-amino-4-(6-chloro-4-(((2R,3R)-1-(4-chloro-1H-imidazole-1-carbonyl)-2-methylpyrrolidin-3-yl)(methyl)amino)-8-fluoro-2-(((2R,7aS)-2-fluorotetrahydro-1H-pyrrolizin-7a(5H)-yl)methoxy)quinazolin-7-yl)-7-fluorobenzo[b]thiophene-3-carbonitrile] | –
3 | < 500 nM | – | < 500 nM | < 500 nM | – | < 500 nM | – | – | ≤ 500 nM | CCN(c1nc(OC[C@@]23CCCN2C[C@@]2(CC2(F)F)C3)nc2c(F)c(-c3ccc(F)c4sc(N)c(C#N)c34)c(C(F)(F)F)cc12)[C@@H]1CCN(C(=O)n2cnc(F)n2)[C@@H]1C [Compound 212, 2-amino-4-(2-(((1S,7a′S)-2,2-difluorodihydro-1′H,3′H-spiro[cyclopropane-1,2′-pyrrolizin]-7a′(5′H)-yl)methoxy)-4-(ethyl((2R,3R)-1-(3-fluoro-1H-1,2,4-triazole-1-carbonyl)-2-methylpyrrolidin-3-yl)amino)-8-fluoro-6-(trifluoromethyl)quinazolin-7-yl)-7-fluorobenzo[b]thiophene-3-carbonitrile] | –
4 | < 500 nM | – | < 500 nM | < 500 nM | – | < 500 nM | – | – | ≤ 500 nM | CC(C)c1cn(C(=O)N2CC[C@@H](N(C)c3nc(OC[C@@]45CCCN4C[C@H](F)C5)nc4c(F)c(-c5ccc(F)c6sc(N)c(C#N)c56)c(Cl)cc34)[C@H]2C)cn1 [Compound 213, 2-amino-4-(6-chloro-8-fluoro-2-(((2R,7aS)-2-fluorotetrahydro-1H-pyrrolizin-7a(5H)-yl)methoxy)-4-(((2R,3R)-1-(4-isopropyl-1H-imidazole-1-carbonyl)-2-methylpyrrolidin-3-yl)(methyl)amino)quinazolin-7-yl)-7-fluorobenzo[b]thiophene-3-carbonitrile] | –
5 | < 500 nM | – | < 500 nM | < 500 nM | – | < 500 nM | – | – | ≤ 500 nM | CC[C@H]1N(C(=O)n2cnc(C)c2C)C[C@]12CCCCN(c1nc(OC[C@@]34CCCN3C[C@H](F)C4)nc3c(F)c(-c4ccc(F)c5sc(N)c(C#N)c45)c(Cl)cc13)C2 [Compound 215, 2-amino-4-(6-chloro-4-((1R,4R)-2-(4,5-dimethyl-1H-imidazole-1-carbonyl)-1-ethyl-2,6-diazaspiro[3.6]decan-6-yl)-8-fluoro-2-(((2R,7aS)-2-fluorotetrahydro-1H-pyrrolizin-7a(5H)-yl)methoxy)quinazolin-7-yl)-7-fluorobenzo[b]thiophene-3-carbonitrile] | –
6 | 500 to 1000 nM | – | < 500 nM | < 500 nM | – | < 500 nM | – | – | > 500 nM | CC(C)[C@@H]1C[C@H](N(C)c2nc(OC[C@@]34CCCN3C[C@H](F)C4)nc3c(F)c(-c4ccc(F)c5sc(N)c(C#N)c45)c(Cl)cc23)CN1C(=O)n1cnc(Cl)n1 [Compound 216, 2-amino-4-(6-chloro-4-(((3S,5S)-1-(3-chloro-1H-1,2,4-triazole-1-carbonyl)-5-isopropylpyrrolidin-3-yl)(methyl)amino)-8-fluoro-2-(((2R,7aS)-2-fluorotetrahydro-1H-pyrrolizin-7a(5H)-yl)methoxy)quinazolin-7-yl)-7-fluorobenzo[b]thiophene-3-carbonitrile] | –
7 | < 500 nM | – | < 500 nM | < 500 nM | – | < 500 nM | – | – | ≤ 500 nM | CN(c1nc(OC[C@@]23CCCN2C[C@H](F)C3)nc2c(F)c(-c3ccc(F)c4sc(N)c(C#N)c34)c(Cl)cc12)[C@H]1CCN(C(=O)n2ccnc2)C1 [Compound 218, 4-(4-(((S)-1-(1H-imidazole-1-carbonyl)pyrrolidin-3-yl)(methyl)amino)-6-chloro-8-fluoro-2-(((2R,7aS)-2-fluorotetrahydro-1H-pyrrolizin-7a(5H)-yl)methoxy)quinazolin-7-yl)-2-amino-7-fluorobenzo[b]thiophene-3-carbonitrile] | –
8 | < 500 nM | – | < 500 nM | < 500 nM | – | < 500 nM | – | – | ≤ 500 nM | C[C@@H]1[C@H](N(C)c2nc(OC[C@@]34CCCN3C[C@H](F)C4)nc3c(F)c(-c4ccc(F)c5sc(N)c(C#N)c45)c(Cl)cc23)CCN1C(=O)n1cc(C#N)cn1 [Compound 220, 1-((2R,3R)-3-((7-(2-amino-3-cyano-7-fluorobenzo[b]thiophen-4-yl)-6-chloro-8-fluoro-2-(((2R,7aS)-2-fluorotetrahydro-1H-pyrrolizin-7a(5H)-yl)methoxy)quinazolin-4-yl)(methyl)amino)-2-methylpyrrolidine-1-carbonyl)-1H-pyrazole-4-carbonitrile] | –
